The record followed here is US20230159931A1, “TARGETING THE PALMOTYLATION/DEPALMOTYLATION CYCLE TO TREAT INFLAMMATORY DISEASES” (CORNELL UNIVERSITY, priority 2020, published 2023).

Molecules are shown by their SMILES. “Also recorded” adds a separate entry of the source.

Data set [1] deals with TH17 cell differentiation. Put plainly: TH17 cell differentiation of mouse splenocytes by flow cytometry (CD4- and IL-17-positive cells). Format: cell-based. The note with it: cytokine cocktail and different concentrations of ML349 for 4 days. The method, then: FIGS. 3A-3E. The STAT3 palmitoylation-depalmitoylation cycle promotes TH17 cell differentiation. (A) DHHC7 promotes phosphorylation of wild-type STAT3, but not of the C108S mutant, in mouse splenocytes. Left, STAT3 and p-STAT3 blots; right, quantification of the relative p-STAT3 levels. (B) TH17 cell differentiation was quantified in the splenocyte samples in A by flow cytometry. […] Mouse splenocytes were treated with a cytokine cocktail (3 ng ml^−1 TGF-β, 40 ng ml^−1 IL-6, 30 ng ml^−1 IL-23, 20 ng ml^−1 TNF and 10 ng ml^−1 IL-1β) and different concentrations of ML349 for 4 days, then collected and analysed by flow cytometry to detect CD4- and IL-17-positive cells. (D) DHHC7 knockout in splenocytes inhibits TH17 cell differentiation. Wild-type and DHHC7-knockout mouse splenocytes were treated with a cytokine cocktail for 4 days to initiate differentiation, then the cells were collected and analyse by flow cytometry to detect CD4- and IL-17-positive cells. (E) Left, STAT3 and p-STAT3 blots of wild-type and DHHC7-knockout splenocytes. Right, quantification of the relative p-STAT3 levels. Data are mean±s.e.m. **P<0.01.
Splenocytes were isolated from mice by classic methods. […]
For FACS analysis, flow cytometry was performed using 1×10^6 cells per sample. […] The cells were detected by Attune Flow Cytometer (Thermo Fisher) and analysed with FCS Express 6 software (De Novo Software).

Data set [2] can be described thus: Tolerability of ML349 in mice. In kind it is in vivo. The note with it: 50 mg kg^−1, mice. The source says:
The inventors tested whether the pharmacological inhibition of APT2 with ML349 could reduce dextran sulfate sodium (DSS)-induced colitis in mice, an experimental model for IBD.

A further data set relates to NZB/W F1 female mice. The experiment in a line: Lupus nephrosis mouse model (proteinuria analysis). Format: in vivo. The settings on record: 25 mg/Kg IP three times per week for 8 weeks, from 25-week age. Here is the method:
FIGS. 17A-17B. Lupus Nephrosis Mouse Model: APT2 inhibitor ML349 decreases protein concentration in the mouse urine. (A) Protein concentration in urine (all data points), (B) Protein concentration in urine (averaged, with error bars). NZB/W F1 female mice at 25-week were administered via IP injection with either vehicle solution (DMSO+PBS) or APT2 inhibitor ML349 at 25 mg/Kg three times per week for 8 weeks. After 4 weeks of treatment, mice were evaluated for lupus incidence weekly through proteinuria analysis by collecting the urines and measuring the protein concentrations in the urine.
NZB/W F1 female mice at 25-week were administered via IP injection with either vehicle solution (DMSO+PBS) or APT2 inhibitor ML349 at 25 mg/Kg three times per week for 8 weeks. After 4 weeks of treatment, mice were evaluated for lupus incidence weekly through proteinuria analysis by collecting the urines and measuring the protein concentrations in the urine. […] This was the first time that the inventors did this experiment and after the experiment began, the inventors noticed that at 25 weeks, the disease phenotype was already very severe. It is expected that if the ML349 treatment is begun earlier, the effect might be more obvious and significant.

`COc1ccc(N2CCN(C(=O)c3cc4c(s3)-c3ccccc3S(=O)(=O)C4)CC2)cc1` [ML349]: the “differentiation of TH17 cells” value in data set [1] is on record as “significantly decreased; also recorded: decreases TH17 cell differentiation in a dose-dependent manner”. Moreover, the tolerability result in data set [2] is recorded as “well tolerated”. Besides, in the data set on NZB/W F1 female mice, the “protein concentrations in the urine” value is “decrease”.
